Laboratory results reported in US20220088016A1, “CANCER TREATMENT USING MULTI-TARGETED KINASE INHIBITOR IN COMBINATION OF PROTEIN KINASE BIOMARKERS” (ZHEJIANG CROWNMAB BIOTECH CO. LTD., priority 2019, published 2022).
Where “and” joins values, the source holds several entries; their conditions need not be identical. Equal entries are not always repeated.

Experiments:
[1] = target: ABL1 (Q252H)-phosphorylated (Homo sapiens, UniProt P00519, Q252H); assay: Kinase profiling; format: binding; conditions: read-out: % Ctrl @ 1000 nM
[2] = target: ABL2 (Homo sapiens, UniProt P42684); assay: Kinase profiling; format: binding; conditions: read-out: % Ctrl @ 1000 nM
[3] = target: BMPR1A (Homo sapiens, UniProt P36894); assay: Kinase profiling; format: binding; conditions: read-out: % Ctrl @ 1000 nM
[4] = target: BRSK1 (Homo sapiens, UniProt Q8TDC3); assay: Kinase profiling; format: binding; conditions: read-out: % Ctrl @ 1000 nM
[5] = target: EGFR (L858R) (Homo sapiens, UniProt P00533, L858R); assay: Kinase profiling; format: binding; conditions: read-out: % Ctrl @ 1000 nM
[6] = target: EPHA3 (Homo sapiens, UniProt P29320); assay: Kinase profiling; format: binding; conditions: read-out: % Ctrl @ 1000 nM
[7] = target: EPHB3 (Homo sapiens, UniProt P54753); assay: Kinase profiling; format: binding; conditions: read-out: % Ctrl @ 1000 nM
[8] = target: ERBB4 (Homo sapiens, UniProt Q15303); assay: Kinase profiling; format: binding; conditions: read-out: % Ctrl @ 1000 nM
[9] = target: FGFR3 (G697C) (Homo sapiens, UniProt P22607, G697C); assay: Kinase profiling; format: binding; conditions: read-out: % Ctrl @ 1000 nM
[10] = target: FGR (Homo sapiens, UniProt P09769); assay: Kinase profiling; format: binding; conditions: read-out: % Ctrl @ 1000 nM
[11] = target: FLT3-autoinhibited (Homo sapiens, UniProt P36888); assay: Kinase profiling; format: binding; conditions: read-out: % Ctrl @ 1000 nM
[12] = target: JNK2 (Homo sapiens, UniProt P45984); assay: Kinase profiling; format: binding; conditions: read-out: % Ctrl @ 1000 nM
[13] = target: MAP3K4 (Homo sapiens, UniProt Q9Y6R4); assay: Kinase profiling; format: binding; conditions: read-out: % Ctrl @ 1000 nM
[14] = target: T1, MAST1 (Homo sapiens, UniProt Q9Y2H9); assay: Kinase profiling; format: binding; conditions: read-out: % Ctrl @ 1000 nM
T1 construct: T7 phage fusion (stated for most kinases of the panel only); made in house; host or cells: T7 phage in E. coli (BL21-derived) or HEK-293 cells

[15] = target: T2, MEK3 (Homo sapiens, UniProt P46734); assay: Kinase profiling; format: binding; conditions: read-out: % Ctrl @ 1000 nM
T2 construct: T7 phage fusion (stated for most kinases of the panel only); made in house; host or cells: T7 phage in E. coli (BL21-derived) or HEK-293 cells

[16] = target: T3, MYLK4 (Homo sapiens, UniProt Q86YV6); assay: Kinase profiling; format: binding; conditions: read-out: % Ctrl @ 1000 nM
T3 construct: T7 phage fusion (said for most assays); made in house

[17] = target: T4, NIM1 (Homo sapiens, UniProt Q8IY84); assay: Kinase profiling; format: binding; conditions: read-out: % Ctrl @ 1000 nM
T4 construct: T7 phage fusion (said for most assays); made in house

[18] = target: PAK2 (Homo sapiens, UniProt Q13177); assay: Kinase profiling; format: binding; conditions: read-out: % Ctrl @ 1000 nM
[19] = target: PIK3CB (Homo sapiens, UniProt P42338); assay: Kinase profiling; format: binding; conditions: read-out: % Ctrl @ 1000 nM
[20] = target: PIP5K1C (Homo sapiens, UniProt O60331); assay: Kinase profiling; format: binding; conditions: read-out: % Ctrl @ 1000 nM
[21] = target: PLK1 (Homo sapiens, UniProt P53350); assay: Kinase profiling; format: binding; conditions: read-out: % Ctrl @ 1000 nM
[22] = target: PRKCH (Homo sapiens, UniProt P24723); assay: Kinase profiling; format: binding; conditions: read-out: % Ctrl @ 1000 nM
[23] = target: RAF1 (Homo sapiens, UniProt P04049); assay: Kinase profiling; format: binding; conditions: read-out: % Ctrl @ 1000 nM
[24] = target: RET (V804L) (Homo sapiens, UniProt P07949, V804L); assay: Kinase profiling; format: binding; conditions: read-out: % Ctrl @ 1000 nM
[25] = target: SRC (Homo sapiens, UniProt P12931); assay: Kinase profiling; format: binding; conditions: read-out: % Ctrl @ 1000 nM
[26] = target: WNK4 (Homo sapiens, UniProt Q96J92); assay: Kinase profiling; format: binding; conditions: read-out: % Ctrl @ 1000 nM
[27] = target: T5, B-Raf (V599E) (h) (Homo sapiens, UniProt P15056, V600E); assay: Kinase IC50 (Eurofins KinaseProfiler); format: biochemical
T5 construct: purchased Eurofins
Protocol: (§1) CBT-102 were tested against each of the selected kinases using the Eurofins standard KinaseProfder assays and following the relevant standard operating procedures. The required volume of the 50× stock of test compound (CBT-102) was added to the assay well, before a reaction mix containing the enzyme and substrate was added. The reaction was initiated by the addition of ATP at the selected concentration. There was no pre-incubation of the compound with the enzyme/substrate mix prior to ATP addition.
(§2) Data are handled using a custom-built in-house analysis software. Results are expressed as kinase activity remaining, as a percentage of the DMSO control. This is calculated using the following formula: […]
(§3) For IC50 determinations, data are analyzed using XLFit version 5.3 (ID Business Solutions).

[28] = target: T6, CDK2/cyclinE (h) (Homo sapiens, UniProt P24941); assay: Kinase IC50 (Eurofins KinaseProfiler); format: biochemical
T6 construct: purchased Eurofins (KinaseProfiler service)
Protocol: as §1, §2, §3

[29] = target: T7, EphB3 (h) (Homo sapiens, UniProt P54753); assay: Kinase IC50 (Eurofins KinaseProfiler); format: biochemical
T7 construct: purchased Eurofins (KinaseProfiler service)
Protocol: as §1, §2, §3

[30] = target: T8, Fgr (h) (Homo sapiens, UniProt P09769); assay: Kinase IC50 (Eurofins KinaseProfiler); format: biochemical
T8 construct: purchased Eurofins (KinaseProfiler service)
Protocol: as §1, §2, §3

[31] = system: MC-38 tumor; assay: Subcutaneous MC-38 murine colon cancer model; format: in vivo, mouse; conditions: 20 mg/kg first 11 days, then 10 mg/kg
Protocol: The MC-38 tumor cells were maintained in vitro with RPMI1640 medium supplemented with 10% fetal bovine serum at 37° C. in an atmosphere of 5% CO2 in air. Each mouse was inoculated subcutaneously after shaving at the right flank region with MC-38 tumor cells (1×10e6) in 0.1 mL of PBS for tumor development. The randomization started when the mean tumor size reached approximately 100 mm^3. Group 1 mice were treated vehicle and group 2 mice were treated 20 mg/kg CBT-102 at first 11 days and reduced to 10 mg/kg afterwards.

T5 sequence (P15056 417-766 V600E limits assumed): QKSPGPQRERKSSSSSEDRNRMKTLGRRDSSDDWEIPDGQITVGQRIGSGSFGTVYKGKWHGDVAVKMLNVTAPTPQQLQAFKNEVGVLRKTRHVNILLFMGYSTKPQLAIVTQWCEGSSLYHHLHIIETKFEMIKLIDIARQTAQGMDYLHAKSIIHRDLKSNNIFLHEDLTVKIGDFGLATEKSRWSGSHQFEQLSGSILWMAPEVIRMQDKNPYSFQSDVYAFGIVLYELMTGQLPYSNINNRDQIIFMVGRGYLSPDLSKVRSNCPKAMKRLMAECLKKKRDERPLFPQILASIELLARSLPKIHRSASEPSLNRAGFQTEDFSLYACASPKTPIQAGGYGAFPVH
Sequence of PIP5K1C (O60331 whole entry): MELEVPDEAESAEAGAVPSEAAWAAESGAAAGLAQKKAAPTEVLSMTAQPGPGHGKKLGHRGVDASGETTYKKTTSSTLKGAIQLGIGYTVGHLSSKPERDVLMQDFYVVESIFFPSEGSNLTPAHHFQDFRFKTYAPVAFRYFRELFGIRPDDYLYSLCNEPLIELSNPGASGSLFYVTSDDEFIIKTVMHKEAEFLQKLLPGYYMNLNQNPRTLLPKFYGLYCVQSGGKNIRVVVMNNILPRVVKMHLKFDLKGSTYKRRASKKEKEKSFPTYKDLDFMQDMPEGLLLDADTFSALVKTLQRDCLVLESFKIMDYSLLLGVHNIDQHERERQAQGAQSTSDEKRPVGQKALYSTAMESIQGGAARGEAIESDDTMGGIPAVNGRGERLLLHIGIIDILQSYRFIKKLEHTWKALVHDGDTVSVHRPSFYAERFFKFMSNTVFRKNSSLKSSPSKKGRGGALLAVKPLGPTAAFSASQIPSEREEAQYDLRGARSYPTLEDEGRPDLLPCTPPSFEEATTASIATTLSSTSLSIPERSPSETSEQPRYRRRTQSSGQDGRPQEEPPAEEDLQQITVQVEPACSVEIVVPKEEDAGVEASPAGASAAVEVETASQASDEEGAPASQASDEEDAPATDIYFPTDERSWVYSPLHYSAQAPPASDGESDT
Sequence of EPHA3 (P29320 21-983): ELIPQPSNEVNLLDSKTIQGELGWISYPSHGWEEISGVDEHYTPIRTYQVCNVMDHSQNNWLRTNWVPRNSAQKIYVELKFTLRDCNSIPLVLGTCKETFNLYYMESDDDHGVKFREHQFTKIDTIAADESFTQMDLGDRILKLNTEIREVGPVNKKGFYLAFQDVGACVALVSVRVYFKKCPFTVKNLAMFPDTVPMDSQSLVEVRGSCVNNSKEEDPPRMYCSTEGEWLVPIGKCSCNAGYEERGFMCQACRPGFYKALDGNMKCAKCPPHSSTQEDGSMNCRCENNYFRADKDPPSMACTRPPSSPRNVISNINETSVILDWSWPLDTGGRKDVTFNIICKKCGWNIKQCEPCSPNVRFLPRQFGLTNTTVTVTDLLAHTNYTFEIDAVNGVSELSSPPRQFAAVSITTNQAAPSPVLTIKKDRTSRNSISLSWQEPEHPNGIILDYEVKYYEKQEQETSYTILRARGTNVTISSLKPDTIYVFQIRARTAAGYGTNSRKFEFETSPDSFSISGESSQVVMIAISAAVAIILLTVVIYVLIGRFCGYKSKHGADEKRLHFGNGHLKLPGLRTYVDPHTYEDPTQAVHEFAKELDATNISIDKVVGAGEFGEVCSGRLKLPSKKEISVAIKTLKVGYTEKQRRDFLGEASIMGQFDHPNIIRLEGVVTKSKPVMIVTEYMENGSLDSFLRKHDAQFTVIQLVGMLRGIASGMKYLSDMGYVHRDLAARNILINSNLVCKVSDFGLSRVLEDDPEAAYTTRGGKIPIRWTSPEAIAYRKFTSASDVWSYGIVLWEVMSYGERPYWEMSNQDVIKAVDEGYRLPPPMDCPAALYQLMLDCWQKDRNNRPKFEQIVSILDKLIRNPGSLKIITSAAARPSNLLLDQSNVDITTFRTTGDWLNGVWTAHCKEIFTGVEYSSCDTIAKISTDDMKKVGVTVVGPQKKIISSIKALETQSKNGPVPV
Sequence of FGFR3 (G697C) (P22607 23-806 G697C): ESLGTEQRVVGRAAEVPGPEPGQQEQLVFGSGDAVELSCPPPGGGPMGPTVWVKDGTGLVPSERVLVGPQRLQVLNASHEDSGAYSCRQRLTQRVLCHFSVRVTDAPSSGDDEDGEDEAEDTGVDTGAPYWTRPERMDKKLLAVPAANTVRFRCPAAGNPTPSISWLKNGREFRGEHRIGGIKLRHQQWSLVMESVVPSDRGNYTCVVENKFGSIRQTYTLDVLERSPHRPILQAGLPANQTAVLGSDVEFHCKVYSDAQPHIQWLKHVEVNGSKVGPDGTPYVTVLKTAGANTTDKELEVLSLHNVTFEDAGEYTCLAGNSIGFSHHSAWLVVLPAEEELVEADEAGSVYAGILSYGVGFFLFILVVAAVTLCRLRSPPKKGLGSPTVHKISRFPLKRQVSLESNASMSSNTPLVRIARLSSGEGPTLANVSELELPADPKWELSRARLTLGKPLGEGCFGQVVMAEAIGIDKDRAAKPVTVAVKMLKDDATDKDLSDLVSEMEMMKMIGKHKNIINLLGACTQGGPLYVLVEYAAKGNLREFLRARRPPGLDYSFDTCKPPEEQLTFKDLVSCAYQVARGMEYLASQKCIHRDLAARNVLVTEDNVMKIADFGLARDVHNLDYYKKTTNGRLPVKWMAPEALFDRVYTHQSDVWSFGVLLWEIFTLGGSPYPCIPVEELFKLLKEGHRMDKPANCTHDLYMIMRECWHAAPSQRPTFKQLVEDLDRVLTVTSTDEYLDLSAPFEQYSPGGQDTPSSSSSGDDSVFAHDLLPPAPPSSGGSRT
Sequence of JNK2 (P45984 whole entry): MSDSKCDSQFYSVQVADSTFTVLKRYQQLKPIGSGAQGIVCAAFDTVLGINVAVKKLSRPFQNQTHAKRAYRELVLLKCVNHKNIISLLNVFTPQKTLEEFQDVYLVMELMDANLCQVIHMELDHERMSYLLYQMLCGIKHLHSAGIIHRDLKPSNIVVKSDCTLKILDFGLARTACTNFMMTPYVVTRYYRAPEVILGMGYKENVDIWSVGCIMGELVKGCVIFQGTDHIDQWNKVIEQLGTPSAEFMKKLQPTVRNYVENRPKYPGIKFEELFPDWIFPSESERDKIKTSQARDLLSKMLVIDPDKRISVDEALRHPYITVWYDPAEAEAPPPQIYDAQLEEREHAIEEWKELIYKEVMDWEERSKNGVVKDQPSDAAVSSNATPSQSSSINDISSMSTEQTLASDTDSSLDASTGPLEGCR
T3 sequence (Q86YV6 whole entry, the tested form may be a part): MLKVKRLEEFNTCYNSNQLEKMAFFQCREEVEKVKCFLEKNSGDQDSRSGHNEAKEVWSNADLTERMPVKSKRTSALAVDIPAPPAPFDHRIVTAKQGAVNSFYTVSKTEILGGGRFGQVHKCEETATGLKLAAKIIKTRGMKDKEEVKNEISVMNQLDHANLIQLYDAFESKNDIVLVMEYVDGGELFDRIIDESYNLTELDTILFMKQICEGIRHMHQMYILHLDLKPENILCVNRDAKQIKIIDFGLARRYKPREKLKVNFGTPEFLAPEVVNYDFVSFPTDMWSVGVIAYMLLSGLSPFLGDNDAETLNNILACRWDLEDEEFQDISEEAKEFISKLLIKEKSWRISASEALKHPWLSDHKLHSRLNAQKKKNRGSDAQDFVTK
T2 sequence (P46734 whole entry, the tested form may be a part): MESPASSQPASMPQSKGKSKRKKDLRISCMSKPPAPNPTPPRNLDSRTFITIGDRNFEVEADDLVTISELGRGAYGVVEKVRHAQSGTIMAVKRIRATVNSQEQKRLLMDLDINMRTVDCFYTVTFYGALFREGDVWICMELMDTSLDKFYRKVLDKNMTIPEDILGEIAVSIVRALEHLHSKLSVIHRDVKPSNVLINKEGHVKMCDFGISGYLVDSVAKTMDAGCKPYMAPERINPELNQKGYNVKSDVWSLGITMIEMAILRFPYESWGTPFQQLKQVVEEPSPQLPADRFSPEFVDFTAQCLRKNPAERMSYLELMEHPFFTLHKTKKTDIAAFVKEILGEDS
Sequence of PIK3CB (P42338 whole entry): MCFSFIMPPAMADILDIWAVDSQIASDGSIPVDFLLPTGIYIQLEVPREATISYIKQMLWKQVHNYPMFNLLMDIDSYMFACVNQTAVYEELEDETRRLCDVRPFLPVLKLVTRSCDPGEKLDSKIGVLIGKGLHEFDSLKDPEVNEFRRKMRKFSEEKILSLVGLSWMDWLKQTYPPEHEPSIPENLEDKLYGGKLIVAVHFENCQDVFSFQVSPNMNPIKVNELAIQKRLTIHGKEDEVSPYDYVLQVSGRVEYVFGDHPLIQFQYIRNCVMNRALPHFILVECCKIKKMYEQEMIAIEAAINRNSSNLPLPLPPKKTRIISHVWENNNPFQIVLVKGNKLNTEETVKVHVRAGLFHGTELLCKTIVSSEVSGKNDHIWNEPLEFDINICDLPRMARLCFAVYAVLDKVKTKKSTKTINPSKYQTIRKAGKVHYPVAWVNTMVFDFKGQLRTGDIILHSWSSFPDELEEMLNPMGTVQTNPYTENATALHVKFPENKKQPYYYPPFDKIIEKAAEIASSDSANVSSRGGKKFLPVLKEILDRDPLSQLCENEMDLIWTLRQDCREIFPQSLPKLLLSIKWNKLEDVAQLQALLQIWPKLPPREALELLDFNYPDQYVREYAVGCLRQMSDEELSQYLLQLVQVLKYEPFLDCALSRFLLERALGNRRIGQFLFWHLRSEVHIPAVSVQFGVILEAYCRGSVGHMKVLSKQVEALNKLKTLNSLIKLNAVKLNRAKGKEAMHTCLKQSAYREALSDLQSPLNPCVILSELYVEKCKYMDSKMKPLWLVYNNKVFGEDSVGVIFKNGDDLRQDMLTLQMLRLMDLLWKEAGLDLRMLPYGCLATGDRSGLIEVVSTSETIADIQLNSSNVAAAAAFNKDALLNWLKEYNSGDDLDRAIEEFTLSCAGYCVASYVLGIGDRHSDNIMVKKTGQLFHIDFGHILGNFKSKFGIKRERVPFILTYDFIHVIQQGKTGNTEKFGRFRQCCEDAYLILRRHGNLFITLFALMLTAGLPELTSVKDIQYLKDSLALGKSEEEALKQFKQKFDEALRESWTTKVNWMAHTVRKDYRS

SMILES: Cc1cc(Oc2cc(NC(=O)C3CC3)ncn2)ccc1NC(=O)Nc1ccc(Cl)c(C(F)(F)F)c1 [CBT-102]
- remaining activity at 1 µM [1]: 82%
- remaining activity at 1 µM [2]: 40%
- remaining activity at 1 µM [3]: 54%
- remaining activity at 1 µM [4]: 95%
- remaining activity at 1 µM [5]: 87%
- remaining activity at 1 µM [6]: 33%
- remaining activity at 1 µM [7]: 82%
- remaining activity at 1 µM [8]: 100%
- remaining activity at 1 µM [9]: 100%
- remaining activity at 1 µM [10]: 41%
- remaining activity at 1 µM [11]: 90%
- remaining activity at 1 µM [12]: 31%
- remaining activity at 1 µM [13]: 100%
- remaining activity at 1 µM [14]: 86%
- remaining activity at 1 µM [15]: 90%
- remaining activity at 1 µM [16]: 100%
- remaining activity at 1 µM [17]: 82%
- remaining activity at 1 µM [18]: 94%
- remaining activity at 1 µM [19]: 100%
- remaining activity at 1 µM [20]: 93%
- remaining activity at 1 µM [21]: 95%
- remaining activity at 1 µM [22]: 100%
- remaining activity at 1 µM [23]: 3.4%
- remaining activity at 1 µM [24]: 42%
- remaining activity at 1 µM [25]: 76%
- remaining activity at 1 µM [26]: 89%
- IC50 [27]: 115 nM
- IC50 [28]: > 10000 nM
- IC50 [29]: > 10000 nM
- IC50 [30]: 1430 nM
- Tumor Size on day34 ([31]; Day34 (PG-D21)): 454.63 mm^3 and 454.63 ± 60.72 mm^3
- T/C ([31]; day34): 20.09%
- TGI ([31]; day34, vs vehicle): 79.91%
